Data published in paper PMC8129133, “Polymer-free corticosteroid dimer implants for controlled and sustained drug delivery” (Nature Communications, 2021).
Values joined by “and” are separate entries in the source; they are usually repeats but may differ in a detail not shown here. Equal entries are not always repeated.

Legend:
[1] = 3-point bend test of extruded rods; format: physicochemical; conditions: Fig 2c
Source text: Extruded rods of ~300 µm diameter and 8 mm length (6 mm span on testing apparatus) were subjected to a 3-point bend test using an Instron uniaxial servo-hydraulic testing machine (Instron Model 8501) with a 2.5 N load cell and cross-head speed of 0.8 mm/min.

[2] = Dissolution of intravitreal implants in the rabbit eye (IR imaging of implant diameter, model fit); format: in vivo; conditions: for local surface dissolution rate constant / Implant Diameter (%): intravitreal; for local surface dissolution rate constant / Diameter of the drug delivery device / Diameter of drug delivery device: rabbit eye; for Implant Diameter (%): Fig 8b, 30 G × 6 mm implant, rabbit; for Diameter of the drug delivery device: script for Supp Fig 11a (30 G implant); for Diameter of drug delivery device: script for Supp Fig 11b, 32G × 6mm
Method: Sample preparation. All implants were formed by melt extrusion of Dex-TEG-Dex, followed by cutting of implants to desired length. Samples were loaded into appropriate sized needles (27 G for 27 G implant, 30 G for 30 G, and 32 G implants), packaged, and sterilized by ethylene oxide gas.
IR imaging. Wide-angle infrared (IR) imaging was performed at baseline, and monthly thereafter for implant imaging and eye health assessment. The imaging was performed using a Heidelberg Spectralis® imaging platform and IR images were analyzed using image analysis software (Image J v.1.8.0) to measure the diameter change of the implants. Three diameter measurements per image and a minimum of two images per implant were used to determine the diameter of the implant at each time point.
Mathematical modeling of drug release. Modeling of the Dex-TEG-Dex implants in the rabbit eye was performed using a compartmental model of drug release using MathWorks MATLAB R2020b. In this model, the drug delivery device is formed of solid drug dimer which undergoes surface erosion to release dimer into an intermediate domain. In the intermediate domain, dimer undergoes degradation to free drug and mono (linker-drug), which subsequently degrades to free linker and free drug. These components undergo transport to the target domain and are then cleared.
This model employs several simplifying assumptions. (1) The mechanism of surface dissolution is local (the same for each part of the surface independent of its location on the surface of the implant), in a manner dependent on the properties of the implant’s physiological location (e.g., dimer saturation). (2) Rate constants of processes are time independent, and the dissolution rates only depend on the corresponding changes in the shape of the delivery devices and properties of their environment. (3) Dimer degradation in the domain of interest occurs on a comparatively fast time scale such that the saturation concentration of dimer is not reached.
A differential equation for the radius, R(t), of a cylindrical drug delivery device described by the compartmental model and derived using Noyes–Whitney equation[74],[75] can be written as (1):1 dR/dt=−DμY/ρh⋅y^*=−b, where D is a diffusion coefficient, µY is the molecular mass of the dimer, ρ is the density of the drug delivery device material, h is the thickness of the concentration gradient layer near the surface, y* is the saturation concentration of the dimer and b is the local surface dissolution rate.
The initial radius, R, of the cylindrical device is known: R0=R0 . Integrating Eq. (1) with this initial condition, gives Eq. (2):2 Rt=R0−b⋅t
Equation (2) was fit to available data (time-dependent measurements of implant diameter) to estimate the local surface dissolution rate constant b for the 30 G × 6 mm and 32 G × 6 mm Dex-TEG-Dex intravitreal implants.

[3] = Shelf-life stability study (polarized light microscopy); format: physicochemical; conditions: extruded amorphous implants
Method: Extruded Dex-TEG-Dex implants were assessed for shelf-life stability. Melt extruded Dex-TEG-Dex materials were packaged in the lumen of 30 G needles (BD) and stored in an anhydrous pouch containing desiccant. Samples were aged at 25 °C, 40 °C, and 70 °C for up to 4 months, corresponding to real-time aging of 126 days (25 °C, 4 months), 356 days (40 °C, 4 months), and 2851 days (70 °C, 4 months). At specified time points, samples were removed from their packaging and assessed by polarized light microscopy as outlined below.
Samples were placed on glass slides, cross-sectioned as needed and imaged with a polarizing light microscope (SM-LUX-POL, Leitz) equipped with a Leica EC4 digital camera (Leica) using LAS EZ v.3.2.0 software (Leica). Additionally, a λ-plate compensator was used to assist in evaluation of features with weak birefringence.

With `C[C@@H]1C[C@H]2[C@@H]3CCC4=CC(=O)C=C[C@]4(C)[C@@]3(F)[C@@H](O)C[C@]2(C)[C@@]1(O)C(=O)COC(=O)OCCOCCOCCOC(=O)OCC(=O)[C@@]1(O)[C@H](C)C[C@H]2[C@@H]3CCC4=CC(=O)C=C[C@]4(C)[C@@]3(F)[C@@H](O)C[C@@]21C` [Dex-TEG-Dex] the “Flexural Modulus” value [1] was 2.45 GPa and 2.68 GPa and 3.21 GPa and 3.29 GPa and 3.01 GPa, the “local surface dissolution rate constant” value ([2]; 30 G implant) was 0.1510 ± 0.0084 µm/day and the “local surface dissolution rate constant” value ([2]; 32 G implant) was 0.1522 ± 0.0140 µm/day. For the same compound, the “Implant Diameter (%)” value ([2]; 0 days) was 107.57% and 103.15% and 92.13% and 99.18% and 92.81% and 97.05% and 100.23% and 107.88%, the “Implant Diameter (%)” value ([2]; 35 days) was 87.55% and 86.70% and 88.00% and 92.68% and 90.49% and 81.42% and 103.34% and 91.71% and the “Implant Diameter (%)” value ([2]; 76 days) was 82.56% and 74.07% and 79.78% and 98.06% and 80.37% and 72.75% and 93.94%. The “Implant Diameter (%)” value ([2]; 128 days) was 76.90% and 66.50% and 66.32% and 64.24% and 79.47% and 77.51% and 67.41% and 82.08%, the “Implant Diameter (%)” value ([2]; 210 days) was 55.93% and 41.19% and 50.86% and 49.89% and 69.49% and 44.35% and 52.23% and 60.96% and the “Diameter of the drug delivery device” value ([2]; day 0) was 115.44 µm and 122.56 µm and 115.98 µm and 121.28 µm and 125.25 µm and 134.81 µm and 135.77 µm and 128.91 µm. The “Diameter of the drug delivery device” value ([2]; day 35) was 109.97 µm and 115.81 µm and 110.60 µm and 101.74 µm and 129.14 µm and 114.61 µm and 109.41 µm and 108.35 µm, the “Diameter of the drug delivery device” value ([2]; day 76) was 92.56 µm and 99.70 µm and 122.54 µm and 101.44 µm and 90.91 µm and 117.39 µm and 94.21 µm and 112.13 µm and the “Diameter of the drug delivery device” value ([2]; day 128) was 81.93 µm and 80.28 µm and 99.31 µm and 96.86 µm and 84.21 µm and 102.57 µm and 96.10 µm and 83.10 µm. The “Diameter of the drug delivery device” value ([2]; day 185) was 71.40 µm and 91.90 µm and 62.52 µm and 53.64 µm and 76.76 µm and 78.82 µm and 73.54 µm, the “Diameter of the drug delivery device” value ([2]; day 210) was 63.55 µm and 62.35 µm and 86.62 µm and 55.42 µm and 65.27 µm and 76.18 µm and 69.90 µm and 51.48 µm and the “Diameter of drug delivery device” value ([2]; day 0) was 71.94 µm and 80.30 µm and 83.05 µm and 99.99 µm and 86.79 µm and 101.43 µm and 116.40 µm and 84.89 µm. For the same compound, the “Diameter of drug delivery device” value ([2]; day 35) was 90.18 µm and 66.10 µm and 74.39 µm and 80.46 µm and 84.98 µm and 58.84 µm and 82.44 µm and 84.41 µm, the “Diameter of drug delivery device” value ([2]; day 76) was 77.98 µm and 58.21 µm and 73.62 µm and 66.12 µm and 67.29 µm and 54.07 µm and 65.40 µm and 64.89 µm and the “Diameter of drug delivery device” value ([2]; day 128) was 43.88 µm and 50.55 µm and 44.52 µm and 60.85 µm and 49.60 µm and 50.03 µm and 42.29 µm and 71.40 µm. The “crystallinity after shelf-life storage” value [3] was “no evidence of crystallinity”.
